From publication doi:10.1101/2025.11.20.689572v1 (biorxiv, 2025) come the findings set out here.

The target of one test is T1, 5-HT2B (Homo sapiens, UniProt P41595).
T1 construct: gene HTR2B; full-length receptor; HEK293 cell membranes
Briefly: competitive radioligand binding, HEK293 membranes. An excerpt:
competitive radioligand binding, HEK293 membranes on 5-HT2B

For another test, the target named is T2, α2B (Homo sapiens, UniProt P18089).
T2 construct: gene ADRA2B; full-length receptor; HEK293 cell membranes
T2 sequence (P18089 whole entry): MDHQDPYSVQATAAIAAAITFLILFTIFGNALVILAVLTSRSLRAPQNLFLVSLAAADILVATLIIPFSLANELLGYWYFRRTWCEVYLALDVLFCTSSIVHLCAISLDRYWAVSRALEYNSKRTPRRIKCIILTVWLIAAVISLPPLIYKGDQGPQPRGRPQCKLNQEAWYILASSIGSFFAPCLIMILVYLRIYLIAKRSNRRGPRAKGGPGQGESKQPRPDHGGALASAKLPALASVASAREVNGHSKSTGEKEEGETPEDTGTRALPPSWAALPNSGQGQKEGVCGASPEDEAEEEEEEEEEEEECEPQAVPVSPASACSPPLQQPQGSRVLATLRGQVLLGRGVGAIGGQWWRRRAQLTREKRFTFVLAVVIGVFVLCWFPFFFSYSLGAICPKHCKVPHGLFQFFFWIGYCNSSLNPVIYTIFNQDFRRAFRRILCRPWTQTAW
The experiment in a line: competitive radioligand binding, HEK293 membranes. The source says: competitive radioligand binding, HEK293 membranes on α2B

Another test concerns the target T3, M4 (Homo sapiens, UniProt P08173).
T3 construct: gene CHRM4; full-length receptor; HEK293 with TRUPATH sensors (function)
T3 sequence (P08173 1-479): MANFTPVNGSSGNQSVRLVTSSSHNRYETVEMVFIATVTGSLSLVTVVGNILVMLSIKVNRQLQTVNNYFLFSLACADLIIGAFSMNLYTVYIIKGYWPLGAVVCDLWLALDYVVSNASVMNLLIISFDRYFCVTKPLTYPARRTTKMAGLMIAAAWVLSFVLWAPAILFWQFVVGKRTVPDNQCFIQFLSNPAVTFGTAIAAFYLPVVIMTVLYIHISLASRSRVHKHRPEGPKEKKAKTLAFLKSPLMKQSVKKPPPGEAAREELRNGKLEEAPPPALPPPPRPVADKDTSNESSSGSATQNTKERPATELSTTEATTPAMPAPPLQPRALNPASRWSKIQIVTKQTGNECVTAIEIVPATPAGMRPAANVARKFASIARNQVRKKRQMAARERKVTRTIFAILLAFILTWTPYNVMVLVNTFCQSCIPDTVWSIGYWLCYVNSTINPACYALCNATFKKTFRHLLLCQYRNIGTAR
Briefly: TRUPATH BRET2 G protein dissociation, HEK293. It is filed as cell-based. As to conditions: HBSS, […] HEPES pH […] °C; agonist mode.

Test [1] has as its target T4, CHRM2 (Homo sapiens, UniProt P08172).
T4 sequence (P08172 1-466): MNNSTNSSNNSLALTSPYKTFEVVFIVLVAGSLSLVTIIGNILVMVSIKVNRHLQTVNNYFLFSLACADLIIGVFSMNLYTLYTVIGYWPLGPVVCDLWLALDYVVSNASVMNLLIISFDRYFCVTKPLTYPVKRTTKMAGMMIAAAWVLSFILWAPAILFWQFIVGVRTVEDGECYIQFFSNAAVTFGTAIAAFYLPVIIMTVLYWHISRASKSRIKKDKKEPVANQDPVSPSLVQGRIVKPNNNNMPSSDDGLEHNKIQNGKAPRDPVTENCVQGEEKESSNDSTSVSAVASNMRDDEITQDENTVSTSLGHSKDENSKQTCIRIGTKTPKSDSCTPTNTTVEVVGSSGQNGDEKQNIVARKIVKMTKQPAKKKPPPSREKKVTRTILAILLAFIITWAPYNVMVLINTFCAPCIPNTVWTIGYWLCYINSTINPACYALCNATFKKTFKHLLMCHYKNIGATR
Briefly: cell-based. Set-up: species or system HEK293; TRUPATH BRET2 G-protein dissociation; antagonist mode against agonist EC80. As to conditions: agonist mode, % of control agonist.

For a further test, the target named is CHRM3 (Homo sapiens, UniProt P20309). The experiment in a line: cell-based. On the set-up: species or system HEK293; TRUPATH BRET2 G-protein dissociation; antagonist mode against agonist EC80. As to conditions: agonist mode, % of control agonist.
CHRM3, sequence (P20309 whole entry): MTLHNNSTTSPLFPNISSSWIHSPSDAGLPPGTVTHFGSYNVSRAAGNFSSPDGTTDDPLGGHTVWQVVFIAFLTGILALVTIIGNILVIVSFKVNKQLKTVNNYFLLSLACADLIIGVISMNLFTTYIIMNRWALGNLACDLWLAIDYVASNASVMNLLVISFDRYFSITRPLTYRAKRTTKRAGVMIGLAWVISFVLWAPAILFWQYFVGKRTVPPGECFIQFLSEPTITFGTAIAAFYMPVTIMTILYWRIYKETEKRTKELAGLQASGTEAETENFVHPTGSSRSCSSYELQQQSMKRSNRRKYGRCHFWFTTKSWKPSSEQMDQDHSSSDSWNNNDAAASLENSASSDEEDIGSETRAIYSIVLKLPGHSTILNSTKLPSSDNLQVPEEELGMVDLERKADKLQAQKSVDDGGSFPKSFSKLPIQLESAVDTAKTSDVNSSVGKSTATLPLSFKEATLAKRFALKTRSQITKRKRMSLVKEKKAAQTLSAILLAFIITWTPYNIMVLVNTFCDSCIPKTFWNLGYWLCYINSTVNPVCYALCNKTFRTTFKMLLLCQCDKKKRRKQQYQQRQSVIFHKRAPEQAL
For test [2], the target named is T5, CHRM4 (Homo sapiens, UniProt P08173).
T5 sequence (P08173 1-479): T3 sequence (P08173 1-479)
The experiment in a line: cell-based. As to conditions: agonist mode, % of control agonist. On the set-up: species or system HEK293; TRUPATH BRET2 G-protein dissociation; antagonist mode against agonist EC80.

For the next test, the target named is T6, HTR1A (Homo sapiens, UniProt P08908).
T6 sequence (P08908 1-422): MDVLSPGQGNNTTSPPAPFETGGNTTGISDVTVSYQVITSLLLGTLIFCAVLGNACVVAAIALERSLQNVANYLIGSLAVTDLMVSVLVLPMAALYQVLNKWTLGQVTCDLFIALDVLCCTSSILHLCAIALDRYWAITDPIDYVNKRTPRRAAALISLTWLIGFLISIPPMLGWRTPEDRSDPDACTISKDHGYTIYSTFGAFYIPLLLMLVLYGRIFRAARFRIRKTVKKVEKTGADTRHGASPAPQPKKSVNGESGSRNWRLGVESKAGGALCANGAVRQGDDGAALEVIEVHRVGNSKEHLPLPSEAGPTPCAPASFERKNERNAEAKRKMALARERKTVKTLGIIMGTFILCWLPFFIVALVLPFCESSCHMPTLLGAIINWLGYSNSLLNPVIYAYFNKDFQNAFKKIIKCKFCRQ
Briefly: cell-based. As to conditions: agonist mode, % of control agonist. Set-up: species or system HEK293; TRUPATH BRET2 G-protein dissociation; antagonist mode against agonist EC80.

Test [3] has as its target T4, CHRM2. Briefly: cell-based. As to conditions: Assay=Gi, agonist mode, % of control agonist. Set-up: species or system HEK293; GloSensor-22F cAMP assay, Gi-mediated inhibition of isoproterenol-stimulated cAMP; antagonist mode against agonist EC80.
The target of test [4] is T5, CHRM4. The experiment in a line: cell-based. On the set-up: species or system HEK293; GloSensor-22F cAMP assay, Gi-mediated inhibition of isoproterenol-stimulated cAMP; antagonist mode against agonist EC80. As to conditions: Assay=Gi, agonist mode, % of control agonist.
The target in the next test is HRH3 (Homo sapiens, UniProt Q9Y5N1). Briefly: cell-based. Set-up: species or system HTLA; PRESTO-Tango beta-arrestin2 recruitment, luciferase luminescence, concentration-response. As to conditions: Assay=Tango; agonist mode.
HRH3, sequence (Q9Y5N1 whole entry): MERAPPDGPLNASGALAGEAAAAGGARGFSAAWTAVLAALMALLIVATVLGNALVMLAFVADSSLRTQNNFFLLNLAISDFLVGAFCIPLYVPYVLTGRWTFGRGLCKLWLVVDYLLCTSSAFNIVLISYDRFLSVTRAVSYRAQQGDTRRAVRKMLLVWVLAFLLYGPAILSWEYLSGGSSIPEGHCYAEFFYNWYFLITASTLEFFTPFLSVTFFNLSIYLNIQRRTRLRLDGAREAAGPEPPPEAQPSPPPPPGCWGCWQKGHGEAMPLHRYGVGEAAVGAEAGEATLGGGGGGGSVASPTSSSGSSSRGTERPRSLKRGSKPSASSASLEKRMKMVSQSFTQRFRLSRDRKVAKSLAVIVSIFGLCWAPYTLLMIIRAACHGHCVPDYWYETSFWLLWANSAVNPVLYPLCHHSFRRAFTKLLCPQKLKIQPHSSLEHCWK
Where [5] appears, read: HEK293, read-out: N-Desmethyl Xanomeline, Assay=Gi1.
[6] abbreviates: HEK293, read-out: N-Desmethyl Xanomeline, Assay=Gi2.
The mark [7] stands for this setting: HEK293, read-out: N-Desmethyl Xanomeline, Assay=Gi3.
[8] abbreviates: HEK293, read-out: N-Desmethyl Xanomeline, Assay=GoA.
Setting [9] is: HEK293, read-out: N-Desmethyl Xanomeline, Assay=GoB.
Setting [10] is: HEK293, read-out: N-Desmethyl Xanomeline, Assay=Gz.
Where [11] appears, read: HEK293, read-out: N-Desmethyl Xanomeline.
The mark [12] stands for this setting: HEK293, read-out: Xanomeline, Assay=Gi1.
[13] abbreviates: HEK293, read-out: Xanomeline, Assay=Gi2.
Setting [14] is: HEK293, read-out: Xanomeline, Assay=Gi3.
The mark [15] stands for this setting: HEK293, read-out: Xanomeline, Assay=GoA.
Setting [16] is: HEK293, read-out: Xanomeline, Assay=GoB.
The mark [17] stands for this setting: HEK293, read-out: Xanomeline, Assay=Gz.

Like-named read-outs stand apart in the source and are kept apart here.

T1 sequence (P41595 whole entry): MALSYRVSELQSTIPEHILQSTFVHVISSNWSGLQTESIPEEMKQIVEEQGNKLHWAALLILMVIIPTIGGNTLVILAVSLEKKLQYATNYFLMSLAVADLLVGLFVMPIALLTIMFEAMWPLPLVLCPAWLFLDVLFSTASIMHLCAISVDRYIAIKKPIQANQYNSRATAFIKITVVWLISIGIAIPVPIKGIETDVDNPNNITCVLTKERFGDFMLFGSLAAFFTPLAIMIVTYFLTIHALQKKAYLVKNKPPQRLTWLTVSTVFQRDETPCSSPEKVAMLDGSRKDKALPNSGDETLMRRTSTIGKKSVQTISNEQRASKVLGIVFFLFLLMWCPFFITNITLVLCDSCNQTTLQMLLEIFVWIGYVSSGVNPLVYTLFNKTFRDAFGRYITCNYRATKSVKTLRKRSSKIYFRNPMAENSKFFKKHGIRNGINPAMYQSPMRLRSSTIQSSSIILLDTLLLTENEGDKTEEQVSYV

In general, Ki refers to a measure of affinity in units of concentration, obtained from inhibition or displacement. A low value points to tighter binding. What is called EC50 is the concentration that produces a half-maximal response. As for `CCCCCCOc1nsnc1C1=CCCNC1` [N-desmethylxanomeline], the Ki is 0.0158 µM at 5-HT2B and 0.339 µM on α2B. Also, the 50% effective concentration (EC50) result at M4 is “differential activation of M1-M5 muscarinic receptor transducers”; on HRH3, 7.58 µM. Besides, the Emax at CHRM2 [1] (setting [5]) turned out to be 87.3%; on CHRM2 [1] (setting [6]), 88.1%; on CHRM2 [1] (setting [7]), 65.4%; on CHRM2 [1] (setting [8]), 101%; on CHRM2 [1] (setting [9]) it was 95.1%; at CHRM2 [1] (setting [10]), 81.5%. Besides, the Emax on CHRM3 (HEK293, read-out: N-Desmethyl Xanomeline, Assay=Gq) worked out at 62.4%; at CHRM4 [2] (setting [5]) it was 94.1%; at CHRM4 [2] (setting [6]), 106%; at CHRM4 [2] (setting [7]), 81.3%; at CHRM4 [2] (setting [8]), 100%; on CHRM4 [2] (setting [9]) it was 102%. Further, the Emax is 89% on CHRM4 [2] (setting [10]); 103% on HTR1A (setting [6]); 97.4% at HTR1A (setting [8]); 98.8% on HTR1A (setting [9]); 107% at CHRM2 [3] (setting [11]); 84.4% on CHRM4 [4] (setting [11]).

Consider `CCCCCCOc1nsnc1C1=CCCN(C)C1` [Xanomeline], for which the Ki was 0.0398 µM at 5-HT2B and 0.316 µM at α2B. The EC50 entry on M4 was “xanomeline being more potent and efficacious than carbachol at M1 and M4 muscarinic receptors”; on HRH3, 9.44 µM. The Emax at CHRM2 [1] (setting [12]) is 64.6%; on CHRM2 [1] (setting [13]), 81.2%; on CHRM2 [1] (setting [14]) it was 30.2%; at CHRM2 [1] (setting [15]), 99.1%; at CHRM2 [1] (setting [16]), 97.2%; at CHRM2 [1] (setting [17]), 60.4%. Also, the Emax was 65.6% on CHRM3 (HEK293, read-out: Xanomeline, Assay=Gq); 98.4% at CHRM4 [2] (setting [12]); 110% on CHRM4 [2] (setting [13]); 86% on CHRM4 [2] (setting [14]); 107% at CHRM4 [2] (setting [15]); 106% on CHRM4 [2] (setting [16]). The Emax on CHRM4 [2] (setting [17]) is 94.1%; at HTR1A (setting [13]), 99.6%; at HTR1A (setting [15]), 94.5%; at HTR1A (setting [16]), 91.7%; at CHRM2 [3] (HEK293, read-out: Xanomeline), 85.9%; at CHRM4 [4] (HEK293, read-out: Xanomeline), 87.2%.
